# PubChem BioAssay (NCI)
#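 Briefly, cells in 96-well plates were exposed to five compound concentrations for 48 h, and endpoints were estimated by linear interpolation. GI50 marks 50% less growth. The concentration for full growth arrest is given as TGI.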
# Legend:
# Assay in all cases: NCI-60 cell line screen, 48 h
# SK-MEL-2 melanoma = tested on: SK-MEL-2 melanoma
# EKVX NSCLC = tested on: EKVX NSCLC
# SF-295 CNS = tested on: SF-295 CNS
# SNB-19 CNS = tested on: SNB-19 CNS
# OVCAR-4 ovarian = tested on: OVCAR-4 ovarian
# SN12C renal = tested on: SN12C renal
# OVCAR-8 ovarian = tested on: OVCAR-8 ovarian
# SR leukemia = tested on: SR leukemia
# NCI-H460 lung = tested on: NCI-H460 lung
# CAKI-1 renal = tested on: CAKI-1 renal
# SK-MEL-5 melanoma = tested on: SK-MEL-5 melanoma
# NCI-H226 lung = tested on: NCI-H226 lung
# TK-10 renal = tested on: TK-10 renal
# HCT-15 colon = tested on: HCT-15 colon
# OVCAR-5 ovarian = tested on: OVCAR-5 ovarian
# NCI-H522 lung = tested on: NCI-H522 lung
# CCRF-CEM leukemia = tested on: CCRF-CEM leukemia
# SF-539 CNS = tested on: SF-539 CNS
# SW-620 colon = tested on: SW-620 colon
# KM12 colon = tested on: KM12 colon
# OVCAR-3 ovarian = tested on: OVCAR-3 ovarian
# U251 CNS = tested on: U251 CNS
# A498 renal = tested on: A498 renal
# LOX IMVI melanoma = tested on: LOX IMVI melanoma
# ACHN renal = tested on: ACHN renal
# MDA-MB-435 = tested on: MDA-MB-435
# MALME-3M melanoma = tested on: MALME-3M melanoma
# K-562 leukemia = tested on: K-562 leukemia
# COLO 205 colon = tested on: COLO 205 colon
# UO-31 renal = tested on: UO-31 renal
# IGROV1 ovarian = tested on: IGROV1 ovarian
# PC-3 prostate = tested on: PC-3 prostate
# UACC-257 melanoma = tested on: UACC-257 melanoma
# HL-60(TB) leukemia = tested on: HL-60(TB) leukemia
# NCI/ADR-RES ovarian = tested on: NCI/ADR-RES ovarian
# M14 melanoma = tested on: M14 melanoma
# SK-MEL-28 melanoma = tested on: SK-MEL-28 melanoma
# HCT-116 colon = tested on: HCT-116 colon
# HCC-2998 colon = tested on: HCC-2998 colon
# RXF 393 renal = tested on: RXF 393 renal
# SNB-75 CNS = tested on: SNB-75 CNS
# MDA-MB-231 breast = tested on: MDA-MB-231 breast
# SK-OV-3 ovarian = tested on: SK-OV-3 ovarian
# A549 NSCLC = tested on: A549 NSCLC
# RPMI-8226 leukemia = tested on: RPMI-8226 leukemia
# HS 578T breast = tested on: HS 578T breast
# BT-549 breast = tested on: BT-549 breast
# SF-268 CNS = tested on: SF-268 CNS
# NCI-H23 lung = tested on: NCI-H23 lung
# MOLT-4 leukemia = tested on: MOLT-4 leukemia
# HT29 colon = tested on: HT29 colon
# MCF7 breast = tested on: MCF7 breast
# UACC-62 melanoma = tested on: UACC-62 melanoma
# 786-0 renal = tested on: 786-0 renal
# HOP-92 NSCLC = tested on: HOP-92 NSCLC
# DU-145 prostate = tested on: DU-145 prostate
# T-47D breast = tested on: T-47D breast
# HOP-62 NSCLC = tested on: HOP-62 NSCLC
smiles,measurement,setting,value
C=C[C@H]1CCC/C=C/[C@@H]2C[C@H](O)C[C@H]2[C@H](O)/C=C/C(=O)O1,GI50,SK-MEL-2 melanoma,30.3 nM
same,TGI,SK-MEL-2 melanoma,94.4 nM
same,GI50,EKVX NSCLC,39.5 nM
same,TGI,EKVX NSCLC,> 100000 nM
same,GI50,SF-295 CNS,53.7 nM
same,TGI,SF-295 CNS,> 100000 nM
same,GI50,SNB-19 CNS,54.2 nM
same,TGI,SNB-19 CNS,> 100000 nM
same,GI50,OVCAR-4 ovarian,30.3 nM
same,TGI,OVCAR-4 ovarian,> 100000 nM
same,GI50,SN12C renal,37.4 nM
same,TGI,SN12C renal,> 100000 nM
same,GI50,OVCAR-8 ovarian,37.4 nM
same,TGI,OVCAR-8 ovarian,> 100000 nM
same,GI50,SR leukemia,31.9 nM
same,GI50,NCI-H460 lung,42.2 nM
same,TGI,NCI-H460 lung,> 100000 nM
same,GI50,CAKI-1 renal,35 nM
same,TGI,CAKI-1 renal,> 100000 nM
same,GI50,SK-MEL-5 melanoma,< 12.9 nM
same,TGI,SK-MEL-5 melanoma,23.8 nM
same,GI50,NCI-H226 lung,< 12.5 nM
same,TGI,NCI-H226 lung,28.9 nM
same,GI50,TK-10 renal,39.3 nM
same,TGI,TK-10 renal,500 nM
same,GI50,HCT-15 colon,32.5 nM
same,TGI,HCT-15 colon,> 34700 nM
same,GI50,OVCAR-5 ovarian,50.4 nM
same,TGI,OVCAR-5 ovarian,> 100000 nM
same,GI50,NCI-H522 lung,67.3 nM
same,TGI,NCI-H522 lung,356 nM
same,GI50,CCRF-CEM leukemia,41.8 nM
same,TGI,CCRF-CEM leukemia,> 100000 nM
same,GI50,SF-539 CNS,53.1 nM
same,TGI,SF-539 CNS,> 100000 nM
same,GI50,SW-620 colon,27.5 nM
same,TGI,SW-620 colon,94.9 nM
same,GI50,KM12 colon,22 nM
same,TGI,KM12 colon,50.7 nM
same,GI50,OVCAR-3 ovarian,24.2 nM
same,TGI,OVCAR-3 ovarian,57.6 nM
same,GI50,U251 CNS,42.8 nM
same,TGI,U251 CNS,> 100000 nM
same,GI50,A498 renal,15 nM
same,TGI,A498 renal,52.8 nM
same,GI50,LOX IMVI melanoma,22.2 nM
same,TGI,LOX IMVI melanoma,52.8 nM
same,GI50,ACHN renal,40.4 nM
same,TGI,ACHN renal,> 100000 nM
same,GI50,MDA-MB-435,43 nM
same,TGI,MDA-MB-435,> 100000 nM
same,GI50,MALME-3M melanoma,34 nM
same,TGI,MALME-3M melanoma,1890 nM
same,GI50,K-562 leukemia,47.8 nM
same,TGI,K-562 leukemia,> 100000 nM
same,GI50,COLO 205 colon,19.4 nM
same,TGI,COLO 205 colon,36.5 nM
same,GI50,UO-31 renal,34.1 nM
same,TGI,UO-31 renal,> 100000 nM
same,GI50,IGROV1 ovarian,65.5 nM
same,TGI,IGROV1 ovarian,> 100000 nM
same,GI50,PC-3 prostate,45.8 nM
same,TGI,PC-3 prostate,> 100000 nM
same,GI50,UACC-257 melanoma,86.4 nM
same,TGI,UACC-257 melanoma,> 100000 nM
same,GI50,HL-60(TB) leukemia,34.7 nM
same,TGI,HL-60(TB) leukemia,234 nM
same,GI50,NCI/ADR-RES ovarian,36.1 nM
same,TGI,NCI/ADR-RES ovarian,> 100000 nM
same,GI50,M14 melanoma,35.3 nM
same,TGI,M14 melanoma,> 100000 nM
same,GI50,SK-MEL-28 melanoma,21.3 nM
same,TGI,SK-MEL-28 melanoma,404 nM
same,GI50,HCT-116 colon,23.8 nM
same,TGI,HCT-116 colon,57.6 nM
same,GI50,HCC-2998 colon,31.6 nM
same,GI50,RXF 393 renal,< 13.7 nM
same,TGI,RXF 393 renal,< 19.3 nM
same,GI50,SNB-75 CNS,< 10 nM
same,TGI,SNB-75 CNS,> 100000 nM
same,GI50,MDA-MB-231 breast,20.1 nM
same,TGI,MDA-MB-231 breast,40.3 nM
same,GI50,SK-OV-3 ovarian,40.6 nM
same,TGI,SK-OV-3 ovarian,> 93500 nM
same,GI50,A549 NSCLC,41.5 nM
same,TGI,A549 NSCLC,> 100000 nM
same,GI50,RPMI-8226 leukemia,45 nM
same,TGI,RPMI-8226 leukemia,> 100000 nM
same,GI50,HS 578T breast,< 10 nM
same,TGI,HS 578T breast,> 100000 nM
same,GI50,BT-549 breast,50 nM
same,TGI,BT-549 breast,> 100000 nM
same,GI50,SF-268 CNS,38 nM
same,TGI,SF-268 CNS,> 100000 nM
same,GI50,NCI-H23 lung,39.3 nM
same,TGI,NCI-H23 lung,6000 nM
same,GI50,MOLT-4 leukemia,38.7 nM
same,TGI,MOLT-4 leukemia,> 100000 nM
same,GI50,HT29 colon,24.4 nM
same,TGI,HT29 colon,63.2 nM
same,GI50,MCF7 breast,21 nM
same,TGI,MCF7 breast,53.2 nM
same,GI50,UACC-62 melanoma,34.4 nM
same,TGI,UACC-62 melanoma,> 100000 nM
same,GI50,786-0 renal,18.4 nM
same,TGI,786-0 renal,37.7 nM
same,GI50,HOP-92 NSCLC,28.9 nM
same,TGI,HOP-92 NSCLC,2990 nM
same,GI50,DU-145 prostate,77.1 nM
same,TGI,DU-145 prostate,> 100000 nM
same,GI50,T-47D breast,28.5 nM
same,TGI,T-47D breast,97.3 nM
same,GI50,HOP-62 NSCLC,48.8 nM
